From patent US7244758B2, “N-type calcium channel blockers” (Neuromed Pharmaceuticals Ltd., priority 2003, dated 2007)
Where two headings read alike, the source gives them in different places.

Key:
[1] = biological target: T1, rat brain N-type calcium channel subunits (α1B+α2δ+β1b) (Rattus norvegicus, UniProt Q02294); test: N-type calcium channel block, whole cell patch clamp in HEK 293 cells; assay type: cell-based; settings: holding −80 mV to +10 mV, 5 mM Ba
T1 construct: expressed in transfected cells; host or cells: HEK 293
T1 sequence (Q02294 whole entry): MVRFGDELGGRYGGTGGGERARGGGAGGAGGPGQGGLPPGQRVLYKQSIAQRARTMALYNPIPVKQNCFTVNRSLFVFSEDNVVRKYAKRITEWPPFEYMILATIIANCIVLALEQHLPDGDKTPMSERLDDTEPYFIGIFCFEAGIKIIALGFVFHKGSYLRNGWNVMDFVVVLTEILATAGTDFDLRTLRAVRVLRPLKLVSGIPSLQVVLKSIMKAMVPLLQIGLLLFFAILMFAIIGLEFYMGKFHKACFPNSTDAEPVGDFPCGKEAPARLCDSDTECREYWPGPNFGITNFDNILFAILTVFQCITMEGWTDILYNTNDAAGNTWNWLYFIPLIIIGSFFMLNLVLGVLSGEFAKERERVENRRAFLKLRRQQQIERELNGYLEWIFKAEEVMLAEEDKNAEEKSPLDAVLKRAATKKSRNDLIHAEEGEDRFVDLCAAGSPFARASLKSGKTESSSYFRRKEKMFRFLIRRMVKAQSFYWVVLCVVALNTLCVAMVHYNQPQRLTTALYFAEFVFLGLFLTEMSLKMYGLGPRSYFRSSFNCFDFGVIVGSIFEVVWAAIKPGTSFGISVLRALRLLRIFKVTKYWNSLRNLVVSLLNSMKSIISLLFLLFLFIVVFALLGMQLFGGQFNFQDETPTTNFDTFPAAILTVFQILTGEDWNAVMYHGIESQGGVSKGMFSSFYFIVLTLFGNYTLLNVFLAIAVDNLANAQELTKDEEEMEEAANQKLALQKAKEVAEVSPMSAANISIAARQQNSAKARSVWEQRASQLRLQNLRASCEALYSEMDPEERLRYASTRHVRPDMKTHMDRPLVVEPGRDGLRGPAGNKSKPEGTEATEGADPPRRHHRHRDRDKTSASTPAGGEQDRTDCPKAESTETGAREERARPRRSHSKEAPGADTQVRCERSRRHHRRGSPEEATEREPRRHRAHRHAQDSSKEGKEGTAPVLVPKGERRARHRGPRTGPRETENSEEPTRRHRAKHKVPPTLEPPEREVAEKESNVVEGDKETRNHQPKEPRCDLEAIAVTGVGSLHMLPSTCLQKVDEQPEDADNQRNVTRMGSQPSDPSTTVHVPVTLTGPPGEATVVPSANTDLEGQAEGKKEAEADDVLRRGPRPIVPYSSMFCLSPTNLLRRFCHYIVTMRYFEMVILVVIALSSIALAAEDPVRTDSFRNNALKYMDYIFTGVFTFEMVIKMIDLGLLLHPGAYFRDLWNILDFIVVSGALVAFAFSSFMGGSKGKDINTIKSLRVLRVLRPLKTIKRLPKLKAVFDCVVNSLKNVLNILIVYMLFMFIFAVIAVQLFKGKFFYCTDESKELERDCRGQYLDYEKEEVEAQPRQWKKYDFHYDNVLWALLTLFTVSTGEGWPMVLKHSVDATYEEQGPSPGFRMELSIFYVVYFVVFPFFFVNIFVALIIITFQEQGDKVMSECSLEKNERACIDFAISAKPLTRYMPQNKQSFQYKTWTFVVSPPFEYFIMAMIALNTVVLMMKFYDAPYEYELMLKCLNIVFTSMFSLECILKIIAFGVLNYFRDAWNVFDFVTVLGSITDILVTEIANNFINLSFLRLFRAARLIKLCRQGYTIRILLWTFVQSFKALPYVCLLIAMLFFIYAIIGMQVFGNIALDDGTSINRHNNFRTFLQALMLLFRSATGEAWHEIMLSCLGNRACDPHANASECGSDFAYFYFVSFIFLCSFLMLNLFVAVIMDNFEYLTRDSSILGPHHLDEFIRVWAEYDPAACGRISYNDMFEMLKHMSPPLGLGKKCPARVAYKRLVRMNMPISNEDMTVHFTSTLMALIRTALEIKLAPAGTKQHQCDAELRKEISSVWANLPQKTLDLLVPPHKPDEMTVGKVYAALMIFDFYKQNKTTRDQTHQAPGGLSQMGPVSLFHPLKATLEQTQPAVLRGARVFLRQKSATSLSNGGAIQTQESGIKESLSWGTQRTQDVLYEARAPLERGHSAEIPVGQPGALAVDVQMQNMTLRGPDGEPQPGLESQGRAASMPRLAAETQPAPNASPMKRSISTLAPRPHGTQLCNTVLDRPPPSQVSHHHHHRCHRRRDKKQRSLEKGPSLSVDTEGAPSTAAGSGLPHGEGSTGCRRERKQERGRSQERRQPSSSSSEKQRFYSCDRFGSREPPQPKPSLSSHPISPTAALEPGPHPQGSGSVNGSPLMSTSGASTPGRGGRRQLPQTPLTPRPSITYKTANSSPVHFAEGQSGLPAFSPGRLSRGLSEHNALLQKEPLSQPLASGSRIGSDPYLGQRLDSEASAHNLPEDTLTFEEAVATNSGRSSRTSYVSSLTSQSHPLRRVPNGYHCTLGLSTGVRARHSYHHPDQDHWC
Description: Antagonist activity was measured using whole cell patch recordings on human embryonic kidney cells either stably or transiently expressing rat α1B+α2δ+β1b channels (N-type channels) with 5 mM barium as a charge carrier. P/Q-type channels (α1A+α2δ+β1b cDNA subunits) and L-type channels (α1C+α2δ+β1b cDNA subunits) were also transiently expressed in HEK 293 cells.
For transient expression, host cells, such as human embryonic kidney cells, HEK 293 (ATCC# CRL 1573) were grown in standard DMEM medium supplemented with 2 mM glutamine and 10% fetal bovine serum. HEK 293 cells were transfected by a standard calcium-phosphate-DNA coprecipitation method using the rat α1B+β1b+α2δ N-type calcium channel subunits in a vertebrate expression vector (for example, see Current Protocols in Molecular Biology).
After an incubation period of from 24 to 72 hrs the culture medium was removed and replaced with external recording solution (see below). Whole cell patch clamp experiments were performed using an Axopatch 200B amplifier (Axon Instruments, Burlingame, Calif.) linked to an IBM compatible personal computer equipped with pCLAMP software. Borosilicate glass patch pipettes (Sutter Instrument Co., Novato, Calif.) were polished (Microforge, Narishige, Japan) to a resistance of about 4 MΩ when filled with cesium methanesulfonate internal solution (composition in MM: 109 CsCH3 SO4, 4 MgCl2, 9 EGTA, 9 HEPES, pH 7.2). Cells were bathed in 5 mM Ba^++ (in mM: 5 BaCl2, 1 MgCl2, 10 HEPES, 40 tetraethylammonium chloride, 10 glucose, 87.5 CsCl pH 7.2). […] Drugs were perfused directly into the vicinity of the cells using a microperfusion system.
Normalized dose-response curves were fit (Sigmaplot 4.0, SPSS Inc., Chicago, Ill.) by the Hill equation to determine IC50 values. Steady-state inactivation curves were plotted as the normalized test pulse amplitude following 5 s inactivating prepulses at +10 mV increments. Inactivation curves were fit (Sigmaplot 4.0) with the Boltzman equation, Ipeak (normalized)=1/(1+exp((V−Vh)z/25.6)), where V and Vh are the conditioning and half inactivation potentials, respectively, and z is the slope factor.
N-type calcium channel blocking activity was assayed in human embryonic kidney cells, HEK 293, stably transfected with the rat brain N-type calcium channel subunits (α1B+α2δ+β1b cDNA subunits). Alternatively, N-type calcium channels (α1B+α2δ+β1b cDNA subunits), L-type channels (α1C+α2δ+β1b cDNA subunits) and P/Q-type channels (α1A+α2δ+β1b cDNA subunits) were transiently expressed in HEK 293 cells. Briefly, cells were cultured in Dulbecco's modified eagle medium (DMEM) supplemented with 10% fetal bovine serum, 200 U/ml penicillin and 0.2 mg/ml streptomycin at 37° C. with 5% CO2. At 85% confluency cells were split with 0.25% trypsin/1 mM EDTA and plated at 10% confluency on glass coverslips. At 12 hours the medium was replaced and the cells transiently transfected using a standard calcium phosphate protocol and the appropriate calcium channel cDNA's. Fresh DMEM was supplied and the cells transferred to 28° C./5% CO2. Cells were incubated for 1 to 2 days to whole cell recording.
Whole cell patch clamp experiments were performed using an Axopatch 200B amplifier (Axon Instruments, Burlingame, Calif.) linked to a personal computer equipped with pCLAMP software. The external and internal recording solutions contained, respectively, 5 mM BaCl2, […], 10 mM HEPES, 40 mM TEACl, 10 mM glucose, 87.5 mM CsCl (pH 7.2) and 108 mM CsMS, 4 mM MgCl2, 9 mM EGTA, 9 mM HEPES (pH 7.2). Currents were typically elicited from a holding potential of −80 mV to +10 mV using Clampex software (Axon Instruments).

[2] = biological target: T2, human α1G T-type channels (Homo sapiens, UniProt O43497); test: Block of α1G T-type channels, whole-cell patch clamp in HEK cells; assay type: cell-based
T2 construct: expressed in transfected cells
T2 sequence (O43497 whole entry): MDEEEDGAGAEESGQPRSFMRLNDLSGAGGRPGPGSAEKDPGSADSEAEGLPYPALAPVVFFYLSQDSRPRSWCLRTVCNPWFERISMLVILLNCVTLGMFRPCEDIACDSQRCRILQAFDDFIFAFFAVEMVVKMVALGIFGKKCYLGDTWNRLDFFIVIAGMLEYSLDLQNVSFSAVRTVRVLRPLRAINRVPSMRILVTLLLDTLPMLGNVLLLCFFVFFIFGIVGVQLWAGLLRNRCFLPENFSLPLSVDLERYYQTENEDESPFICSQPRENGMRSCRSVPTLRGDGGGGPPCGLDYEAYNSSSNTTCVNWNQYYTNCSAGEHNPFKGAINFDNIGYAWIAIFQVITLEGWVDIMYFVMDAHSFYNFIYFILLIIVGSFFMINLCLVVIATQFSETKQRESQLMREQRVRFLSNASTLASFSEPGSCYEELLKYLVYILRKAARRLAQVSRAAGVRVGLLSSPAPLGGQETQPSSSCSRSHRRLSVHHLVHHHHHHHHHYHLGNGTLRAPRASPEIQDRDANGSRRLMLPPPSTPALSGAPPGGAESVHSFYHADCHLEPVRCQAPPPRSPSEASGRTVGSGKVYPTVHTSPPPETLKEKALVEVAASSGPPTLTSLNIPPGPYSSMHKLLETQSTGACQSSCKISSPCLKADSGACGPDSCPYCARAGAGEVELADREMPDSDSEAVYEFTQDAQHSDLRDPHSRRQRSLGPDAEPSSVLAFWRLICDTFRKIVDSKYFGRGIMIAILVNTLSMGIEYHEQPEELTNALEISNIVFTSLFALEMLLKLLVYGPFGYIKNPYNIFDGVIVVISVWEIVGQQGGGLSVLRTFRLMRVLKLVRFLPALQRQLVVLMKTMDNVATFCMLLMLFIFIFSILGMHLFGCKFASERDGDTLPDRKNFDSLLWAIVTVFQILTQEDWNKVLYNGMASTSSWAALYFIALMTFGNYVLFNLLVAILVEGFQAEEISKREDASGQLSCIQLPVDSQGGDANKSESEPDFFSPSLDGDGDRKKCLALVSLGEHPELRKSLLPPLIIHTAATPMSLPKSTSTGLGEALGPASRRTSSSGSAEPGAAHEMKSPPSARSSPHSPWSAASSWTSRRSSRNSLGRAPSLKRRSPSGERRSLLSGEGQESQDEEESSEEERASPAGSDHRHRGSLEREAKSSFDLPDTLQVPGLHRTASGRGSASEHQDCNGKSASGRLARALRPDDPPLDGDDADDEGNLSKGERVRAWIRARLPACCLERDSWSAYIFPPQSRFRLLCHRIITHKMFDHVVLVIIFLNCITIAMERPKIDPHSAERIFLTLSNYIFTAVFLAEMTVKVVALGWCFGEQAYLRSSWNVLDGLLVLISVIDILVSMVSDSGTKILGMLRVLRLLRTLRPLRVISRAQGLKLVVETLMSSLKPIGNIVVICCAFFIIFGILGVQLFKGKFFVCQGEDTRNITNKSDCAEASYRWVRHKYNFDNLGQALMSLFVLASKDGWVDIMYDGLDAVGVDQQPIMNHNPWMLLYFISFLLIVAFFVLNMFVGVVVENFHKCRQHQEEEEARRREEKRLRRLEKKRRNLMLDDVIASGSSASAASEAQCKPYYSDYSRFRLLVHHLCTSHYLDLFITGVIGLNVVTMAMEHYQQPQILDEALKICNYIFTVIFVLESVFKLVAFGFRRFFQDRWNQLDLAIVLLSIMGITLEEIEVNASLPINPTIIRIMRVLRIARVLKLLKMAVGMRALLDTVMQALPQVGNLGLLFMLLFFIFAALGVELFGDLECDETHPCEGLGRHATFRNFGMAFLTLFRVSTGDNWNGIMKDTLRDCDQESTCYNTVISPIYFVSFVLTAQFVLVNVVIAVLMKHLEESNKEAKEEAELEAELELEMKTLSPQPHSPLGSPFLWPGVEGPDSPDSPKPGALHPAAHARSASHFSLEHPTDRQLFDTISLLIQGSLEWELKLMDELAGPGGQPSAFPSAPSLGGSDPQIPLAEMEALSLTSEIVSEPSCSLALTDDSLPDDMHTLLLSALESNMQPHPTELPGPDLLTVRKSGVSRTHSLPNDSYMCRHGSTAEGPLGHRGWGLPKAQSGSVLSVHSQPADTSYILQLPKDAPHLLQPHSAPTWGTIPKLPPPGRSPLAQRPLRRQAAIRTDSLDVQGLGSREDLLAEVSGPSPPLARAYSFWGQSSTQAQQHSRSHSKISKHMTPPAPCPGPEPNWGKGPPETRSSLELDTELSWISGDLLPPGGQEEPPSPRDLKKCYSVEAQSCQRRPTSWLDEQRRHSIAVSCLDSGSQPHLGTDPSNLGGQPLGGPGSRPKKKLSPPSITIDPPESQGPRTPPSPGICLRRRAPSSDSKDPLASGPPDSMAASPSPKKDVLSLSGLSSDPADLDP
Description: Standard patch-clamp techniques were employed to identify blockers of T-type currents. Briefly, previously described HEK cell lines stably expressing human α1G T-type channels were used for all the recordings (passage #: 4-20, 37° C., 5% CO2). To obtain T-type currents, plastic dishes containing semi-confluent cells were positioned on the stage of a ZEISS AXIOVERT S100 microscope after replacing the culture medium with external solution (see below). Whole-cell patches were obtained using pipettes (borosilicate glass with filament, O.D.: 1.5 mm, I.D.: 0.86 mm, 10 cm length), fabricated on a SUTTER P-97 puller with resistance values of ˜5 MΩ (see below for internal solution).
In the non-inactivating protocol, the holding potential is set at −110 mV and with a pre-pulse at −100 mV for 1 second prior to the test pulse at −40 mV for 50 ms. […]
Test compounds were dissolved in external solution, 0.1-0.01% DMSO. After ˜10 min rest, they were applied by gravity close to the cell using a WPI microfil tubing. The “non-inactivated” pre-pulse was used to examine the resting block of a compound. The “inactivated” protocol was employed to study voltage-dependent block. However, the initial data shown below were mainly obtained using the non-inactivated protocol only. IC50 values are shown for various compounds of the invention in Table 6.

[3] = low frequency stimulation 0.067 Hz (tonic block), read-out: IC50 at 0.067 Hz
[4] = non-inactivating protocol, pre-pulse −100 mV (resting block), read-out: IC50 at −100 mV
[5] = pulse frequency 0.2 Hz (frequency dependent block), read-out: IC50 at 0.2 Hz
[6] = inactivation protocol (voltage-dependent block), read-out: IC50 at −80 mV

IC50 [1, 3] | IC50 [2, 4] | IC50 [1, 5] | IC50 [2, 6] | IC50 at −100 mV ([2]; non-inactivating protocol, pre-pulse −100 mV (resting block)) | Structure (SMILES)
10 nM | 27 nM |  |  |  | COc1c(C(C)(C)C)cc(C(=O)N2CCC(CNC(=O)CCCCC(c3ccc(F)cc3)c3ccc(F)cc3)C2)cc1C(C)(C)C (stereo not drawn) [Compound P11]
57 nM | 618 nM | 45 nM | 227 nM |  | CN(C(=O)CN(CC(=O)N(C)c1ccccc1)CC1CCN(C(c2ccccc2)c2ccccc2)C1)c1ccccc1 (stereo not drawn) [Compound P60]
450 nM |  | 280 nM |  |  | COc1cc(C(=O)NCC2CCN(CCCCCC(c3ccc(F)cc3)c3ccc(F)cc3)C2)cc(OC)c1OC (stereo not drawn) [Compound P20]
136 nM | 18 nM | 89 nM | 8 nM |  | O=C(NCC1CCN(C(=O)CCCCC(c2ccc(F)cc2)c2ccc(F)cc2)C1)c1cc(C(F)(F)F)cc(C(F)(F)F)c1 (stereo not drawn) [Compound P49]
 | 94 nM |  | 59 nM |  | COc1c(C(C)(C)C)cc(C(=O)NCC2CCN(C(=O)CCCCC(c3ccc(F)cc3)c3ccc(F)cc3)C2)cc1C(C)(C)C (stereo not drawn) [Compound P42]
212 nM |  |  |  |  | COc1cc(CN2CCC(CNCCCCCC(c3ccc(F)cc3)c3ccc(F)cc3)C2)cc(OC)c1OC (stereo not drawn) [Compound P6]
> 1000 nM | > 10000 nM |  |  |  | O=C(NCC1CCN(C(=O)CCCCC(c2ccc(F)cc2)c2ccc(F)cc2)C1)c1cc(Br)c(O)c(Br)c1 (stereo not drawn) [Compound P15]
39 nM |  |  |  |  | COc1c(C(C)(C)C)cc(CNCC2CCN(CCCCCC(c3ccc(F)cc3)c3ccc(F)cc3)C2)cc1C(C)(C)C (stereo not drawn) [Compound P14]
61 nM |  |  |  |  | O=C(CC(c1ccccc1)c1ccccc1)NCC1CCN(C(c2ccccc2)c2ccccc2)C1 (stereo not drawn) [Compound P1]
49 nM |  |  |  |  | CC(C)(C)c1cc(C(=O)NCC2CCN(C(=O)CCCCC(c3ccc(F)cc3)c3ccc(F)cc3)C2)cc(C(C)(C)C)c1O (stereo not drawn) [Compound P7]
1070 nM | 326 nM | 840 nM | 52 nM |  | O=C(CC(c1ccccc1)c1ccccc1)N1CCC(CNC(c2ccccc2)c2ccccc2)C1 (stereo not drawn) [Compound P2]
35 nM |  |  |  |  | CC(C)(C)c1cc(CNCC2CCN(CCCCCC(c3ccc(F)cc3)c3ccc(F)cc3)C2)cc(C(C)(C)C)c1O (stereo not drawn) [Compound P8]
326 nM | 57 nM | 226 nM | 18 nM |  | CN(CCN(c1ccccc1)c1ccccc1)CC1CCN(C(c2ccccc2)c2ccccc2)C1 (stereo not drawn) [Compound P55]
265 nM | 52 nM | 119 nM | 29 nM |  | CC(C)(C)c1cc(C(=O)NCC2CCN(C(=O)CCCCC(c3ccc(F)cc3)c3ccc(F)cc3)C2)cc(C(C)(C)C)c1 (stereo not drawn) [Compound P44]
15 nM |  |  |  |  | CC(C)(C)c1cc(C(=O)N2CCC(CNC(=O)CCCCC(c3ccc(F)cc3)c3ccc(F)cc3)C2)cc(C(C)(C)C)c1O (stereo not drawn) [Compound P9]
417 nM | 86 nM |  |  |  | COc1cc(C(=O)NCC2CCN(C(=O)CCCCC(c3ccc(F)cc3)c3ccc(F)cc3)C2)cc(OC)c1OC (stereo not drawn) [Compound P3]
135 nM |  | 110 nM |  |  | CC(C)(C)c1ccc(C(c2ccccc2)N2CCC(CNC(=O)CC(c3ccc(F)cc3)c3ccc(F)cc3)C2)cc1 (stereo not drawn) [Compound P52]

IC50 [1, 3] | IC50 [2, 4] | IC50 [1, 5] | IC50 [2, 6] | IC50 at −100 mV ([2]; non-inactivating protocol, pre-pulse −100 mV (resting block)) | Structure (SMILES)
32 nM |  |  |  |  | COc1c(C(C)(C)C)cc(CN2CCC(CNCCCCCC(c3ccc(F)cc3)c3ccc(F)cc3)C2)cc1C(C)(C)C (stereo not drawn) [Compound P12]
19 nM | 328 nM | 3 nM | 105 nM |  | Cc1cc(C)cc(NCC(=O)NCC2CCN(C(=O)CCCCC(c3ccc(F)cc3)c3ccc(F)cc3)C2)c1 (stereo not drawn) [Compound P40]
179 nM | 12 nM | 257 nM | 3 nM |  | O=C(CC(c1ccccc1)c1ccccc1)NCC1CCN(C(c2ccccc2)c2ccc(C(F)(F)F)cc2)C1 (stereo not drawn) [Compound P39]
225 nM | 115 nM | 81 nM | 28 nM |  | CN(Cc1cc(C(F)(F)F)cc(C(F)(F)F)c1)CC1CCN(C(=O)CCCCC(c2ccc(F)cc2)c2ccc(F)cc2)C1 (stereo not drawn) [Compound P57]
 | 70 nM |  |  |  | COc1c(C(C)(C)C)cc(C(=O)NCC2CCN(CCCCCC(c3ccc(F)cc3)c3ccc(F)cc3)C2)cc1C(C)(C)C (stereo not drawn) [Compound P19]
76 nM |  | 53 nM |  |  | O=C(CC(c1ccc(F)cc1)c1ccc(F)cc1)NCC1CCN(C(c2ccccc2)c2ccc(F)cc2)C1 (stereo not drawn) [Compound P50]
8000 nM | 40000 nM | 2000 nM | 6000 nM |  | c1ccc(C(c2ccccc2)N2CCC(CN(CCN(c3ccccc3)c3ccccc3)CCN(c3ccccc3)c3ccccc3)C2)cc1 (stereo not drawn) [Compound P59]
279 nM | 153 nM | 241 nM | 55 nM |  | CN(CC(=O)N(c1ccccc1)c1ccccc1)CC1CCN(C(c2ccccc2)c2ccccc2)C1 (stereo not drawn) [Compound P54]
28 nM |  |  |  |  | CC(C)(C)c1cc(CNCC2CCN(CCCCCC(c3ccc(F)cc3)c3ccc(F)cc3)C2)cc(C(C)(C)C)c1 (stereo not drawn) [Compound P18]
59 nM |  |  |  | No effect | COc1cc(C(=O)N2CCC(CNC(=O)CCCCC(c3ccc(F)cc3)c3ccc(F)cc3)C2)cc(OC)c1OC (stereo not drawn) [Compound P5]
380 nM |  | 330 nM |  |  | COc1cc(C(=O)N2CCC(CN(C)CCCCCC(c3ccc(F)cc3)c3ccc(F)cc3)C2)cc(OC)c1OC (stereo not drawn) [Compound P63]
210 nM |  | 150 nM |  |  | O=C(NCC1CCN(CCCCCC(c2ccc(F)cc2)c2ccc(F)cc2)C1)c1cc(C(F)(F)F)cc(C(F)(F)F)c1 (stereo not drawn) [Compound P21]
137 nM |  | 92 nM |  |  | CN(CCC(c1ccccc1)c1ccccc1)CC1CCN(C(c2ccccc2)c2ccccc2)C1 (stereo not drawn) [Compound P56]
400 nM |  |  |  |  | COc1cc(CNCC2CCN(CCCCCC(c3ccc(F)cc3)c3ccc(F)cc3)C2)cc(OC)c1OC (stereo not drawn) [Compound P4]
223 nM |  | 157 nM |  |  | CN(CC1CCN(C(c2ccccc2)c2ccccc2)C1)C(=O)CC(c1ccccc1)c1ccccc1 (stereo not drawn) [Compound P53]
72 nM |  | 56 nM |  |  | O=C(CC(c1ccc(F)cc1)c1ccc(F)cc1)NCC1CCN(C(c2ccccc2)c2ccccc2)C1 (stereo not drawn) [Compound P51]
410 nM |  | 200 nM |  |  | CN(C)CCOc1c(C(C)(C)C)cc(C(=O)N2CCC(CNC(=O)CCCCC(c3ccc(F)cc3)c3ccc(F)cc3)C2)cc1C(C)(C)C (stereo not drawn) [Compound P23]
